Measured values reported in ChEMBL document CHEMBL1133279, “Aminoalkyl adenylate and aminoacyl sulfamate intermediate analogues differing greatly in affinity for their cognate Staphylococcus aureus aminoacyl tRNA synthetases” (Bioorg Med Chem Lett, 2000).

Legend:
[1] = system: Threonyl-tRNA synthetase (Staphylococcus aureus); assay: Inhibitory activity against cognate Staphylococcus aureus threonyl tRNA synthetase at 300 uM
[2] = system: Histidyl-tRNA synthetase (Staphylococcus aureus); assay: Inhibitory activity against cognate Staphylococcus aureus Histidyl-tRNA synthetase at 300 uM

Structure (SMILES) | inhibition [1] [%] | inhibition [2] [%]
C[C@@H](O)[C@H](N)COP(=O)(O)OC[C@H]1O[C@@H](n2cnc3c(N)ncnc32)[C@H](O)[C@@H]1O | 60 | 
Nc1ncnc2c1ncn2[C@@H]1O[C@H](COP(=O)(O)OC[C@@H](N)Cc2c[nH]cn2)[C@@H](O)[C@H]1O |  | 20
